≈ marks a conversion by molar mass, not a printed value. Where “and” joins values, the source holds several entries; their conditions need not be identical. Equal values may be shown once. Read-outs that look alike come from different tables or passages of the source.
Legend:
[1] = tested on: pseudomonads; assay: Ground beef at 10° C., counts on PSA plates; format: cell-based; settings: for Different from 0% (concentrations grouping differently from untreated control, Fisher's LSD and t-test): PSA, Pseudomonas
Experimental: (§1) Ground beef was obtained from the NDSU Meat Lab (ag.ndsu.edu/ansc/facilities/shepperd-arena). Precautionary steps that the slaughter facility undertakes to prevent microbial contamination of muscle meat include rinses of the hot carcass with hot water and 2.5% lactic acid (Birko Corp., Henderson, Colo.). Prior to cutting the meat, cattle halves are incubated for two weeks at a temperature between 0 and 2.2° C. For this Example, meat from two animals was ground within the NDSU Meat Lab and consecutively transferred on ice to the research lab where this Experiment was conducted. Approximately 4 pound of ground meat was obtained from two independent slaughter events (FIG. 6). These two original meat samples are referred to as biological replicates throughout this study. Each biological replicate was weighed into five aliquots of 200 g that were supplemented with 0 g, 0.1 g, 0.5 g, 1 g, or 5 g of liquid EAA (Alfa Aesar, Ward Hill Mass.). […]
(§2) Meat samples were removed from the freezer and incubated at 10° C. for five days; bacterial counts were determined on days 1, 3, and 5. […]
(§3) The content of each bag was transferred into a stomacher bag and Maximum Recovery Diluent (MRD) was added to a total of 50 ml. […] The total bacterial count of each homogenate was determined by plating serial dilutions on Plate Count Agar (PCA). Pseudomonads were determined with Pseudomonas Selective Agar (PSA), lactobacilli with All Purpose Tween agar (APT), B. thermospacta with Streptomycin sulphate, Thallous Acetate and Actidione agar (STAA), and Enterobacteriaceae with Violet Red Bile Glucose agar (VRBG). […]
(§4) Each experiment was performed in a total of 8 replicates (2 biological replicates×2 technical replicates×2 plate replicates). […] Data were analyzed for each EAA concentration and selective media and expressed as CFU/g of meat or log10 CFU/g of meat. […] Average and standard errors were calculated across the two biological and two technical replicates. […]

[2] = tested on: lactobacilli; assay: Ground beef at 10° C., counts on APT plates; format: cell-based; settings: for Different from 0% (concentrations grouping differently from untreated control, Fisher's LSD and t-test): LPT, Lactobacilli
Experimental: as §1, §2, §3, §4

[3] = tested on: Y. enterocolitica; assay: Biofilm amounts, CV assay, 24-well polystyrene plate; format: cell-based, Yersinia enterocolitica
Text: Data were expressed as OD600.

[4] = tested on: P. aeruginosa; assay: Viable cell counts from the biofilms in silicone tubing; settings: 100 mg/ml of EAA, end of two week incubation
[5] = tested on: total bacterial count; assay: Ground beef at 10° C., total bacterial count on PCA plates; format: cell-based; settings: for total bacterial count in the presence of EAA: day 3, unsupplemented 9 log10; for Different from 0% (concentrations grouping differently from untreated control, Fisher's LSD and t-test): PCA, total bacterial count
Experimental: Ground beef was obtained from the NDSU Meat Lab (ag.ndsu.edu/ansc/facilities/shepperd-arena). Precautionary steps that the slaughter facility undertakes to prevent microbial contamination of muscle meat include rinses of the hot carcass with hot water and 2.5% lactic acid (Birko Corp., Henderson, Colo.). Prior to cutting the meat, cattle halves are incubated for two weeks at a temperature between 0 and 2.2° C. For this Example, meat from two animals was ground within the NDSU Meat Lab and consecutively transferred on ice to the research lab where this Experiment was conducted. Approximately 4 pound of ground meat was obtained from two independent slaughter events (FIG. 6). These two original meat samples are referred to as biological replicates throughout this study. Each biological replicate was weighed into five aliquots of 200 g that were supplemented with 0 g, 0.1 g, 0.5 g, 1 g, or 5 g of liquid EAA (Alfa Aesar, Ward Hill Mass.). A total of six aliquots of 10 g were produced from each 200 g aliquot to allow for two technical replicates and determination of bacterial counts at three different time points during the incubation period. Aliquots were stored in Ziploc bags at −20° C.
Meat samples were removed from the freezer and incubated at 10° C. for five days; bacterial counts were determined on days 1, 3, and 5. For one initial experiment, samples were removed after 1 h of incubation at 10° C. This aliquot is not included in FIG. 6.
The content of each bag was transferred into a stomacher bag and Maximum Recovery Diluent (MRD) was added to a total of 50 ml. Meat was homogenized in a Seward Stomacher 400 Circulator (Cole Parmer, Vernon Hills, Ill.). The total bacterial count of each homogenate was determined by plating serial dilutions on Plate Count Agar (PCA). Pseudomonads were determined with Pseudomonas Selective Agar (PSA), lactobacilli with All Purpose Tween agar (APT), B. thermospacta with Streptomycin sulphate, Thallous Acetate and Actidione agar (STAA), and Enterobacteriaceae with Violet Red Bile Glucose agar (VRBG). For the composition of these media, see TABLE 7 (BD: Becton Dickinson). Each serial dilution was plated onto two separate agar plates to allow for two plate replicates (FIG. 6).
Each experiment was performed in a total of 8 replicates (2 biological replicates×2 technical replicates×2 plate replicates). To prepare for analysis, the data sets were pre-processed by determining the averages for the 2 plate replicates. Data were analyzed for each EAA concentration and selective media and expressed as CFU/g of meat or log10 CFU/g of meat. The lower limit of detection was 49 CFU, which is the equivalent of 1.69 log10. This number was used for all experiments that yielded zero colonies from the undiluted homogenate. To determine log reductions, the log10 CFU/g of meat at a given concentration of EAA was subtracted from that obtained for the untreated control piece of meat. Average and standard errors were calculated across the two biological and two technical replicates. Statistical analysis was started with an Analysis of Variance (ANOVA) test that compared the means of the log10 CFU/g data across concentrations, days, and biological replicates to determine the main effects. For comparisons that determined statistically significant differences between the means (p-value below 0.05), Fisher's Least Significant Difference (LSD) test and a pairwise Student's t-test were performed as post hoc test to determine which of the groups were different from the others.

[6] = tested on: Y. enterocolitica; assay: Biofilm in silicone tubing, EAA flush, CV assay; settings: 10 mg/ml EAA
[7] = tested on: E. coli CFT073; assay: Biofilm in silicone tubing, EAA flush, ATP assay
[8] = tested on: isolated bovine corneas; settings: cited from earlier work
[9] = tested on: C. sakazakii; assay: Biofilm amounts, ATP assay, 24-well polystyrene plate; format: cell-based; settings: Cronobacter sakazakii, 37° C.
[10] = tested on: B. thermospacta; assay: Ground beef at 10° C., counts on STAA plates; format: cell-based, Brocothrix thermospacta; settings: for Different from 0% (concentrations grouping differently from untreated control, Fisher's LSD and t-test): STAA, B. thermospacta
Experimental: as §1, §2, §3, §4

[11] = tested on: B. subtilis; settings: cited from earlier work
[12] = tested on: S. aureus; assay: Biofilm in silicone tubing, EAA flush, ATP assay; format: cell-based, Staphylococcus aureus
Text: An AV Fistula Needle 17 Ga.

[13] = tested on: albino rabbits; settings: 0.5 ml EAA, semi-occlusive cover, intact skin, 4 hours of exposure; cited from earlier work
[14] = tested on: P. aeruginosa; assay: Biofilm in silicone tubing, EAA flush, CV assay; settings: 100 mg/ml EAA
[15] = tested on: E. coli; settings: cited from earlier work
[16] = tested on: Y. enterocolitica; assay: Viable bacteria (cell counts) within the biofilm; format: cell-based, Yersinia enterocolitica
[17] = tested on: Cronobacter sakazakii, Serratia marcescens, and Yersinia enterocolitica; assay: Growth and biofilm assays, summary over the three pathogens
[18] = tested on: S. marcescens; assay: Biofilm in silicone tubing, EAA flush, ATP assay; settings: 5 mg/ml EAA

CCOC(=O)CC(C)=O [EAA, ethyl acetoacetate]
log reduction, pseudomonads ([1]; 0.5% w/w EAA, 3 days at 10° C.): 2.6
Different from 0% (concentrations grouping differently from untreated control, Fisher's LSD and t-test) ([1]; 0.5% EAA): 0.5%
Different from 0% (concentrations grouping differently from untreated control, Fisher's LSD and t-test) ([1]; 2.5% EAA): 2.5%
log reduction, lactobacilli ([2]; 0.5% w/w EAA, 3 days at 10° C.): 1.8
Different from 0% (concentrations grouping differently from untreated control, Fisher's LSD and t-test) ([2]; 0.5% EAA): 0.5%
Different from 0% (concentrations grouping differently from untreated control, Fisher's LSD and t-test) ([2]; 2.5% EAA): 2.5%
biofilm amounts quantified by the CV assay ([3]; 37° C., 10 mg/ml EAA): abolished
IC50 ([3]; Yersinia enterocolitica, Y. enterocolitica, 25° C.): 1000 µg/mL (≈ 7.68 mM)
reduction of cell counts within the biofilm [4]: about 3 logs
log reduction, total bacterial count ([5]; 0.5% EAA, 3 days at 10° C.): 2.4
log reduction, total bacterial count ([5]; 0.5% of EAA, 1 day at 10° C.): 0.65
total bacterial count in the presence of EAA ([5]; 0.5% of EAA): 7.8 log10
reduction of total bacterial count ([5]; 2.5% EAA, 5 days at 10° C.): 4.3 logs
log reduction, total bacterial count ([5]; 2.5% of EAA, 1 day at 10° C.): 2.1
total bacterial count in the presence of EAA ([5]; 2.5% of EAA): 6.6 log10
Different from 0% (concentrations grouping differently from untreated control, Fisher's LSD and t-test) ([5]; 0.5% EAA): 0.5%
Different from 0% (concentrations grouping differently from untreated control, Fisher's LSD and t-test) ([5]; 2.5% EAA): 2.5%
reduction in biofilm biomass (CV), words [6]: No reduction
reduction in ATP content of the biofilm ([7]; E. coli CFT073, 5 mg/ml EAA): ~100%
percent reduction of ATP ([7]; E. coli CFT073, 100 mg/ml EAA): 98.5%
eye irritation [8]: moderate eye irritation that was fully reversible after seven days
IC50 [9]: 310 µg/mL (≈ 2.38 mM)
log reduction, Brocothrix thermospecta ([10]; 0.5% w/w EAA, 3 days at 10° C.): 2.1
Different from 0% (concentrations grouping differently from untreated control, Fisher's LSD and t-test) ([10]; 0.5% EAA): 0.5%
Different from 0% (concentrations grouping differently from untreated control, Fisher's LSD and t-test) ([10]; 2.5% EAA): 2.5%
mutagenicity [11]: No mutagenicity was detected
percent reduction of ATP ([12]; 100 mg/ml EAA): 75% and 76%
ATP assay of the biofilm at the end of the two week incubation ([12]; 100 mg/ml of EAA, repeated experiment): just about abolished the biofilm
skin irritation [13]: no indications of irritation were detected
reduction in biofilm biomass (CV), words ([14]; first experiment): no reduction
biofilm biomass from the CV assay after EAA ([14]; repeated experiment, untreated 0.78): 0.24 OD600
mutagenicity [15]: a mutagenic effect could be detected
reduction of bacterial cell counts in the biofilm ([16]; 25° C., 7.5 mg/ml EAA): 2.06 logs
reduction of bacterial cell counts in the biofilm ([16]; 25° C., 10 mg/ml EAA): 3.07 logs
bacterial cell counts in the biofilm ([16]; 37° C., 2.5 mg/ml EAA): did not show a reduction
log reduction of bacterial cell counts in the biofilm ([16]; 37° C., 7.5 mg/ml EAA): 2.06 logs
log reduction in live bacteria within the biofilm ([16]; 37° C., 10 mg/ml of EAA): 0.92
reduction in live bacteria within the biofilm, fold equivalent ([16]; 37° C., 10 mg/ml of EAA): 8.3 fold
IC50 ([16]; Yersinia enterocolitica, Y. enterocolitica, 25° C., live bacteria in the biofilm, read-out: IC50, Live cells): 3000 µg/mL (≈ 23.1 mM)
IC50 ([17]; read-out: IC50 values for biofilm amounts (summary)): ~1000 µg/mL (≈ 7.68 mM)
IC50 ([17]; read-out: IC50 values, range over all experiments): 310 to 5600 µg/mL (≈ 2.38 to 43 mM)
reduction of growth, biofilm amounts and live bacterial cell counts ([17]; three pathogens, maximal reduction): up to 3 logs
reduction in ATP content of the biofilm [18]: ~100%

— patent US11452292B2, “Biofilm inhibitor and method of inhibiting biofilm” (NDSU Research Foundation, priority 2017, dated 2022)
